Measurements published in US5227384A, “5-substituted [4,5-c] imidazopyridines and pharmaceutical use thereof” (G. D. Searle & Co., priority 1991, dated 1993).

How the values were obtained:
rabbit platelets [1] = assay: PAF-induced platelet secretion ([^3 H]serotonin); type: cell-based; details: Oryctolagus cuniculus, washed [^3 H]serotonin-labeled rabbit platelets, 60 sec after PAF, IC50 by inspection of dose-response curves
Protocol: (§1) PAF-induced platelet aggregation and secretion: Washed, [^3 H]serotonin-labeled rabbit platelets were prepared as previously described in COX, C. P., J. LINDEN and S. I. SAID: VIP elevates platelet cyclic AMP (cAMP) levels and inhibits in vitro platelet activation induced by platelet-activating factor (PAF). Peptides 5:25-28, 1984, and maintained in an atmosphere of 5% CO2 at 37° C. until used in the bioassay. […] Aggregation was continuously monitored on a strip-chart recorder and recorded as the height of the tracing at 60 sec after the addition of PAF. Secretion of [^3 H]serotonin was measured in a sample of the platelet suspension removed at 60 sec after the addition of PAF. The percent inhibition of aggregation and secretion was calculated by comparing antagonist-treated platelets with the appropriate vehicle-treated control platelets. Each combination of antagonist and PAF was repeated 12-15 times, using several different platelet preparations. IC50 values were determined by inspection of the dose-response curves.

rabbit platelets [2] = assay: PAF-induced platelet aggregation; type: cell-based; details: Oryctolagus cuniculus, washed rabbit platelets, 60 sec after PAF, IC50 by inspection of dose-response curves
Protocol: as §1

[3] = target: PAF receptor (Human Platelet Membrane Receptors) (Homo sapiens, UniProt P25105)
Sequence of PAF receptor (Human Platelet Membrane Receptors) (P25105 whole entry): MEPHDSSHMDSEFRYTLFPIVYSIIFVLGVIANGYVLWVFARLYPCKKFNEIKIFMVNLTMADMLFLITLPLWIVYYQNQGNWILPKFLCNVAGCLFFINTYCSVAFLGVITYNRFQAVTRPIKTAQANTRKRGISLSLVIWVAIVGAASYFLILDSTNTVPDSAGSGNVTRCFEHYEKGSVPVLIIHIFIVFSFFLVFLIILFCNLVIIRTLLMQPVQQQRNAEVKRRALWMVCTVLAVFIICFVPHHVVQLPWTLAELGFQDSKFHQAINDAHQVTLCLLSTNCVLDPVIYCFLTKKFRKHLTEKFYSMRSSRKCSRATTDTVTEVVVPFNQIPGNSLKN

Row | Structure (SMILES) | IC50 (rabbit platelets [1]; 1 min) [nM] | IC50 (rabbit platelets [2]; 1 min) [nM] | IC50 [3] [nM] | IC50 (rabbit platelets [2]) [nM] | IC50 (rabbit platelets [1]) [nM]
1 | Cc1nc2ccn(Cc3ccc(C(=O)N(C4CCCC4)C4CCCC4)cc3)cc-2n1 [5-[4-(N,N-dicyclopentylcarboxamido)benzyl]-2-methylimidazo[4,5-c]pyridine] | 100 to 1000 | 1000 to 10000 |  |  | 
2 | O=C(c1ccc(Cn2ccc3ncnc-3c2)cc1)N(c1ccccc1)C1CCCC1 [5-[4-(N-phenyl-N-cyclopentylcarboxamido)benzyl]imidazo[4,5-c]pyridine] | 100 to 1000 |  | 2350 | 1000 | 
3 | O=C(c1ccc(Cn2ccc3ncnc-3c2)c(F)c1)N(C1CCCCC1)C1CCCC1 [5-[4-(N-cyclopentyl-N-cyclohexylcarboxamido)-2-fluorobenzyl]imidazo[4,5-c]pyridine] | 1 to 10 | 10 to 100 | 75.5 |  | 
4 | CCCCCCCCCCCCNC(=O)c1ccc(Cn2ccc3ncnc-3c2)cc1 [5-[4-(N-n-dodecylcarboxamido)benzyl]imidazo[4,5-c]pyridine] |  | 100 to 1000 | 11900 |  | 
5 | CC(C)N(C(=O)c1ccc(Cn2ccc3ncnc-3c2)c(F)c1)C1CCCCC1 [5-[4-(N-isopropyl-N-cyclohexylcarboxamido)-2-fluorobenzyl]imidazo[4,5-c]pyridine] | 10 to 100 | 10 to 100 |  |  | 
6 | CN(C(=O)c1ccc(Cn2ccc3ncnc-3c2)c(F)c1)C1CCCCC1 [5-[4-(N,methyl-N-cyclohexylcarboxamido)-2-fluorobenzyl]imidazo[4,5-c]pyridine] | 100 to 1000 | 1000 to 10000 |  |  | 
7 | CC(C)N(C(=O)c1cccc(Cn2ccc3ncnc-3c2)c1)C1CCCCC1 [5-[3-(N-isopropyl-N-cyclohexylcarboxamido)benzyl]imidazo[4,5-c]pyridine] | 1000 to 10000 | 50000 to 100000 |  |  | 
8 | Cc1cc(C(=O)N(C2CCCCC2)C2CCCC2)ccc1Cn1ccc2ncnc-2c1 [N-cyclohexyl-N-cyclopentyl-4-(5H)-imidazo[4,5-c]pyridin-5-ylmethyl)-3-methylbenzamide] |  |  | 18 |  | 2
9 | CCCCCCCCCCNC(=O)c1ccc(Cn2ccc3ncnc-3c2)cc1 [5-[4-(N-n-decylcarboxamido)benzyl]imidazo[4,5-c]pyridine] | 100 to 1000 | 1000 to 10000 | 9710 |  | 
10 | COc1cc(C(=O)N(C2CCCCC2)C2CCCC2)ccc1Cn1ccc2ncnc-2c1 [5-[4{-(N-cyclopentyl,N-cyclohexyl)carboxamido}-2-methoxybenzyl]imidazo[4,5-c]-pyridine] | 1 to 10 |  |  | 10 | 
11 | COc1cc(C(=O)N(C)C2CCCCC2)ccc1Cn1ccc2ncnc-2c1 [5-[4-(N-methyl-N-cyclohexylcarboxamido)-2-methoxybenzyl]imidazo[4,5-c]pyridine] | 100 to 1000 | 1000 to 10000 |  |  | 
12 | CC(C)(C)CC(C)(C)NC(=O)c1ccc(Cn2ccc3ncnc-3c2)cc1 [5-[4-(N-2(2,4,4-trimethyl)pentylcarboxamide)benzyl]imidazo[4,5-c]pyridine] |  |  | 22300 | 10000 | 1000
13 | COc1cc(C(=O)N(C2CCCC2)C2CCCC2)ccc1Cn1ccc2ncnc-2c1 [5-[4-(N,N-dicyclopentylcarboxamido)-2-methoxybenzyl]imidazo[4,5-c]pyridine] | 1 to 10 | 10 to 100 |  |  | 
14 | CN(C(=O)c1cccc(Cn2ccc3ncnc-3c2)c1)C1CCCCC1 [5-[3-(N-methyl-N-cyclohexylcarboxamido)benzyl]imidazo[4,5-c]pyridine] | 10000 to 100000 | 10000 to 100000 |  |  | 
15 | COc1cc(C(=O)N(C(C)C)C2CCCCC2)ccc1Cn1ccc2ncnc-2c1 [5-[4{-(N-isopropyl,N-cyclohexyl)carboxamido}-2-methoxybenzyl]imidazo[4,5-c]pyridine] |  | 10 to 100 | 66.5 |  | 10
16 | Cc1c2ncnc-2ccn1Cc1ccc(C(=O)N(C2CCCC2)C2CCCC2)cc1 [5-[4-(N,N-dicyclopentylcarboxamido)benzyl]-4-methylimidazo[4,5-c]pyridine] | 10 to 100 | 10 to 100 | 188 |  | 
17 | O=C(NC1CCCCC1)c1ccc(Cn2ccc3ncnc-3c2)cc1 [5-[4-(N-cyclohexylcarboxamido)benzyl]imidazo[4,5-c]pyridine] | 100 to 1000 |  | 19300 | 10000 | 
18 | CCCCCCCCNC(=O)c1ccc(Cn2ccc3ncnc-3c2)cc1 [5-[4-(N-n-octylcarboxamido)benzyl]imidazo[4,5-c]pyridine] | 100 to 1000 | 1000 to 10000 | 11000 |  | 
19 | CCC(CC)N(C(=O)c1ccc(Cn2ccc3ncnc-3c2)cc1)C1CCCCC1 [5-[4-(N-3-pentyl-N-cyclohexylcarboxamido)benzyl]imidazo[4,5-c]pyridine] | 10 to 100 | 100 to 1000 |  |  | 
20 | CC(C)N(C(=O)c1ccc(Cn2ccc3ncnc-3c2)cc1)C(C)C [5-[4-(N,N-diisopropylcarboxamido)benzyl]imidazo[4,5-c]pyridine] |  | 1000 to 10000 | 7650 |  | 
21 | COc1cc(Cn2ccc3ncnc-3c2)ccc1C(=O)N(C1CCCC1)C1CC(C)CC(C)C1 (centres unmarked) [N-cyclopentyl-N-(3,5-dimethylcyclohexyl)-4-(5H-imidazo[4,5-c]pyridin-5-ylmethyl)-2-methoxybenzamide] |  |  | 1 |  | 1

Other lines, results leading:

Row | IC50 (rabbit platelets [1]; 1 min) [nM] | IC50 (rabbit platelets [2]; 1 min) [nM] | IC50 [3] [nM] | IC50 (rabbit platelets [2]) [nM] | IC50 (rabbit platelets [1]) [nM] | Structure (SMILES)
22 | 1 to 10 | 50 to 100 |  |  |  | CCC(C)N(C(=O)c1ccc(Cn2ccc3ncnc-3c2)cc1)C1CCCCC1 (centres unmarked) [5-[4-(N-sec.butyl-N-cyclohexylcarboxamido)benzyl]imidazo[4,5-c]pyridine]
23 | 1 to 10 | 10 to 100 | 74 |  |  | CC1CCCC(N(C(=O)c2ccc(Cn3ccc4ncnc-4c3)cc2)C2CCCC2)C1 (centres unmarked) [5-[4-(N-3-methylcyclohexyl-N-cyclopentylcarboxamido)benzyl]imidazo[4,5-c]pyridine]
24 | 1 to 10 | 10 to 100 |  |  |  | CC(C)(C)N(C(=O)c1ccc(Cn2ccc3ncnc-3c2)cc1)C1CCCCC1 [5-[4-(N-tert.butyl-N-cyclohexylcarboxamido)benzyl]imidazo[4,5-c]pyridine]
25 |  | 100 to 1000 | 1060 |  | 10 | O=C(c1ccc(Cn2ccc3ncnc-3c2)cc1)N(C1CCCCC1)C1CCCCC1 [5-[(4-(N,N-dicyclohexylcarboxamido)benzyl]imidazo[4,5-c]pyridine]
26 | 1000 to 10000 | 10000 to 100000 |  |  |  | CN(C(=O)c1ccc(CCn2ccc3ncnc-3c2)cc1)C1CCCCC1 [5-[2-[4-(N-methyl-N-cyclohexylcarboxamido)phenyl]ethyl]imidazo[4,5-c]pyridine]
27 | 100 to 1000 |  | 3680 |  |  | O=C(c1ccc(Cn2ccc3ncnc-3c2)cc1)N(C1CCCCC1)C1CC1 [5-[4-(N-cyclopropyl-N-cyclohexylcarboxamido)benzyl]imidazo[4,5-c]pyridine]
28 | 1 to 10 | 10 to 100 | 19.9 |  |  | O=C(c1ccc(Cn2ccc3ncnc-3c2)cc1)N(C1CCCCC1)C1CCC1 [5-[4-(N-cyclobutyl-N-cyclohexylcarboxamido)benzyl]imidazo[4,5-c]pyridine]
29 | 10 to 100 | 100 to 1000 | 750 |  |  | CC1CCC(N(C(=O)c2ccc(Cn3ccc4ncnc-4c3)cc2)C2CCCC2)CC1 (centres unmarked) [5-[4-(N-4-methylcyclohexyl-N-cyclopentylcarboxamido)benzyl]imidazo[4,5-c]pyridine]
30 |  | 1000 to 10000 | 15200 |  | 720 | CN(C(=O)c1ccc(Cn2ccc3ncnc-3c2)cc1)C1CCCCC1 [5-[4-(N-methyl-N-cyclohexylcarboxamido)benzyl]imidazo[4,5-c]pyridine]
31 | 1 to 10 | 50 to 100 | 310 |  |  | O=C(c1ccc(Cn2ccc3ncnc-3c2)cc1)N(C1CCCC1)C1CCCC1 [5-[4-(N,N-dicyclopentylcarboxamido)benzyl]imidazo[4,5-c]pyridine]
32 |  |  |  | 1000 | 100 | CC(C)CN(C(=O)c1ccc(Cn2ccc3ncnc-3c2)cc1)C1CCCCC1 [5-[4-(N-isobutyl-N-cyclohexylcarboxamido)benzyl]imidazo[4,5-c]pyridine]
33 | 1000 to 10000 | 10000 to 100000 | 61100 |  |  | CN(C(=O)c1ccc(CCCn2ccc3ncnc-3c2)cc1)C1CCCCC1 [5-[3-[4-(N-methyl-N-cyclohexylcarboxamido)phenyl]propyl]imidazo[4,5-c]pyridine]
34 |  |  | 5200 | 1000 to 10000 | 100 to 1000 | CCN(C(=O)c1ccc(Cn2ccc3ncnc-3c2)cc1)C1CCCCC1 [5-[4-(N-ethyl-N-cyclohexylcarboxamido)carboxamido)benzyl]imidazo[4,5-c]pyridine]
35 | 1 to 10 | 10 to 100 | 320 |  |  | O=C(c1ccc(Cn2ccc3ncnc-3c2)cc1)N(C1CCCCC1)C1CCCC1 [5-[4-(N-cyclopentyl-N-cyclohexylcarboxamido)benzyl]imidazo[4,5-c]pyridine]
36 |  |  | 13200 |  | 1000 | CN(C(=O)c1ccc(Cn2ccc3ncnc-3c2)cc1)C1CCC2CCCCC2C1 (centres unmarked) [5-[4-(N-2-decalyl-N-methylcarboxamido)benzyl]imidazo[4,5-c]pyridine]
37 |  | 10 to 100 | 170 |  | 10 | CC(C)N(C(=O)c1ccc(Cn2ccc3ncnc-3c2)cc1)C1CCCCC1 [5-[4{-(N-isopropylyl,N-cyclohexyl)carboxamido}benzyl]imidazo[4.5-c]pyridine]
